The target of the experiment is T1, ISP1-ISP2 enzyme complex (Mus musculus, UniProt Q924N9+Q99MS4).
T1 construct: The native ISP enzyme complex was purified from mouse uterine tissue homogenates; from tissue; host or cells: uterus of pregnant CD1 mice (4.5-6.5 dpc)
Kind of experiment: Substrate affinity (Km) of synthetic chromogenic substrates for ISP enzyme complex. It is filed as biochemical. Particulars: Km = [S] at 1/2 Vmax. Here is the method: To determine the substrate specificity of the ISP complex and to classify it into a subclass of the S1 family of serine proteinases, enzyme assays were carried out using different p-nitroanilide linked peptide (1–3 mer) substrates. These included chymotrypsin-like (Tyr/Phe at cleavage (P1) site), trypsin-like (Arg/Lys at P1 position), elastase-like (Ala at P1 position), and subtilisin-like (Leu at P1 position) substrates. In order to compare affinity of specific substrates and derive Michaelis Menton constant (Km) values, the kinetic curves were plotted (substrate conc. [S] vs. rate of reaction [v]).
Chromogenic assays were carried out using the p-Nitroanilide conjugated peptidic substrates. The reaction conditions used were: 4 mM BAPNA (substrate), in 25 mM Tris.Cl (pH 8.0) and 10 mM EDTA reaction buffer, in a total reaction volume of 0.5 mL. The reactions were carried out at room temperature in a glass cuvette (1 cm path length), and scanned at wavelength maxima of 405 nm using a spectrophotometer. 1 Unit of enzyme is defined as enzyme activity sufficient for the breakdown of 1 μM of substrate/ml/min. The affinity of ISP complex with various substrates was characterized by measuring enzyme activity at differing substrate concentrations and plotting enzyme activity [V] vs. substrate concentration [S]. The Km was calculated using the Michaelis Menton equation (Km = [S] at 1/2 Vmax).

Broadly, the Km is the concentration of substrate that gives half-maximal velocity.

SMILES strings stand for the structures. Residues, ends and D or L forms follow the SMILES beside them. *: point of attachment. pNA = O=[N+]([O-])c1ccc(N*)cc1; Bz = O=C(c1ccccc1)*

T1 sequence (Q924N9 27-274): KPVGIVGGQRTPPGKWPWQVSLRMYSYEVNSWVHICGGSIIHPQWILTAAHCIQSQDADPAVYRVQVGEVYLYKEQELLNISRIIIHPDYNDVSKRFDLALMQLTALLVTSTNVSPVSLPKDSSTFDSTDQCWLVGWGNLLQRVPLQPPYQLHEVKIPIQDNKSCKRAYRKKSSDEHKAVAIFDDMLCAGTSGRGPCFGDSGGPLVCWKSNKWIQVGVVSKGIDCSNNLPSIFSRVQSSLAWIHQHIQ
T1 sequence (Q99MS4 18-279): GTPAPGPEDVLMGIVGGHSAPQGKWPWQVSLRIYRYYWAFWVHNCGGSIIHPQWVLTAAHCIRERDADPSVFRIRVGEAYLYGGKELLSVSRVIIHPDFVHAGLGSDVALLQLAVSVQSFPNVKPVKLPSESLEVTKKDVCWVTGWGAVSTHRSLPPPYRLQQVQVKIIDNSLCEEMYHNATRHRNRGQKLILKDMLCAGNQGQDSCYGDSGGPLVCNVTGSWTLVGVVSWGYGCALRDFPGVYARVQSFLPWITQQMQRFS

Turning to `CC(C)[C@H](NC(=O)[C@H](Cc1ccccc1)NC(=O)c1ccccc1)C(=O)N[C@@H](CCCN=C(N)N)C(=O)Nc1ccc([N+](=O)[O-])cc1` [BPVANA, N-Benzoyl-Phe-Val-Arg-pNA] (Bz-Phe-Val-Arg-pNA), the Km was 60 µM.

The values are drawn from article PMC1713233, “Implantation Serine Proteinases heterodimerize and are critical in hatching and implantation” (BMC Developmental Biology, 2006).
